From paper PMC8607110, “Pyrazole Derivatives Induce Apoptosis via ROS Generation in the Triple Negative Breast Cancer Cells, MDA-MB-468” (Asian Pacific Journal of Cancer Prevention : APJCP, 2021)
Several values for one entry are separate records, joined by “and”; a condition that tells them apart may be missing. Equal entries are not always repeated. Where two headings read alike, the source gives them in different places.

What was measured:
5637 cells = test system: 5637 cells; design: method as in Tessmann et al., 2017; conditions: human bladder cancer cell line; ref Tessmann et al., 2017; cited from earlier work
MDA-MB-468 cells [1] = assay: MTT cell viability assay, MDA-MB-468; type: cell-based, human; conditions: mean ± SD of triplicate
Procedure: (§1) The MDA-MB-468 cells were maintained in DMEM/Ham’s F12 supplemented with L-glutamine, with 10% fetal bovine serum and 1% penicillin/streptomycin. The AGO1522 cell line was cultured in DMEM/Low Glucose, with 10% fetal bovine serum and 1% penicillin/ streptomycin. Cells were incubated at 37°C, 5% CO2 and every 2-3 days at the confluency of 80%, the cells were harvested from the culture flask by Trypsin-EDTA.
(§2) Cell viability was measured with the MTT assay. The reduction of the tetrazolium salt, to a blue formazan crystal is facilitated by mitochondrial dehydrogenase and NADPH-dependent cellular oxidoreductase enzymes (Abel and Baird, 2018). In the assay, an aliquot of 7.5 × 10^3 cells was seeded on the 96-well plates and allowed to attach overnight. Then, 11 Pyrazole derivatives (as shown in Table 1 and Figure S1) were added to the desired well with the final concentration of 3, 6.25, 12.5, 25, 50, 100 μM. After pre-treating cells for 24 and 48h, MTT (5 mg/ml in PBS) was added to each well and the cells were incubated for another 4 h at 37°C. In order to dissolve blue-colored formazan crystals, the entire medium was aspirated after the incubation period, and DMSO was added to the wells. An ELISA plate reader (BioTek Instruments, Inc., USA) was used to quantify the formazan concentration (with the wavelengths of 570 nm). All of the experiments were carried out on three replicates to ensure the measurement repeatability and the IC50 values were also calculated using GraphPad Prism software.

AGO1522 cells = assay: MTT cell viability assay, AGO1522 normal fibroblasts; type: cell-based; conditions: Homo sapiens, Fibroblast, mean ± SD of triplicate
Procedure: as §1, §2

MDA-MB-468 cells [2] = assay: Intracellular ROS detection with DCFH-DA; type: cell-based, human; conditions: 14.97 μM, 24 h, MDA-MB-468, DCFH-DA fluorimetry, vs untreated
Procedure: The level of intracellular ROS corresponded to the MDA-MB-468 cells in response to the 3f compound was monitored by using DCFH-DA. Briefly, 7.5 × 10^3 MDA-MB-468 cells were seeded per well of 96-wells plate and allowed to attach to the bottom of the wells for an overnight followed by treatment with 3f compound at a concentration of 14.7 μM. After incubation of cells for 24 h, PBS was used for rinsing and then cells incubated in the presence of DCFH-DA for 30 min at 37°C. Next, to remove the extracellular DCFH-DA, cells were washed three times with prechilled PBS. Finally, the fluorescent of collected cells was analyzed by using a fluorescent microplate reader (BioTek Synergy HT, Winooski, VT, USA).

MDA-MB-468 cells [3] = assay: Cell cycle analysis by PI staining and flow cytometry; type: cell-based, human; conditions: 14.97 μM, 24 h
Procedure: Cell cycle analysis was conducted through taking advantage of PI staining and flow cytometry analysis. To evaluate cellular DNA levels, the cells stained with PI were subjected to ﬂow cytometric analyses. In this assay, six-well plates were loaded with 2 × 10^5 MDA-MB-468 cells / well. After incubation of the samples at 37°C for 24 h, cells were treated with 3f at concentrations of 14.7 μM followed 24 h incubation. Then, the effect of the drug became evident and cells collected by rinsing with PBS (two times), immobilizing with 70% ice-cold ethanol (for 3 h), and washing with PBS (two times). To resuspend the cells a mixture of 0.25 ml PBS containing 5 μl of 10 mg/ml RNase A and Triton X-100 (0.1%) including 10μl of PI (50 μg/ml) was used and incubation was performed at 37°C for 30 min in a dark place. The assessment of stain cells was carried out employing a FACS Calibur flow cytometer (BD Biosciences, San Jose, CA). The apoptotic rate of the cell population was measured by calculating the percentage of cells with sub-G1 DNA content.

MDA-MB-468 cells [4] = assay: Annexin V-FITC/PI apoptosis detection by flow cytometry; type: cell-based, human; conditions: 14.97 µM, 24 h, MDA-MB-468, compared with untreated cells
Procedure: Annexin V-FITC/PI Apoptosis Detection Kit was employed to detect apoptosis. To assess the number of apoptotic cells, an aliquot of MDA-MB-468 cells was adjusted to obtain 2 × 10^5 cells per well in six-well plates followed by incubation for an overnight. After incubation cells on the surface for an appropriate time, compound 3f was added to the wells to obtain the final concentration of 14.7μM in wells for 24 h. Cells were then harvested from the culture wells by aspirating media and washing with ice-cold PBS. Once the cells have detached, resuspended cells were pipetted up and down thoroughly followed by transferring to a sterilized 5 ml centrifuge tube. After 15min, 400 µl of the binding buffer was added to the cell suspension. Then annexin V-FITC and PI staining solution were added to the tubes. The cell suspension was then placed in a dark place (10 min at room temperature). A flow cytometer (BD Biosciences, San Jose, CA) was used to analyze the cells. The analysis of data was made using FlowJo software.

[5] = test system: caspase-3 in MDA-MB-468 cells; assay: Caspase-3 activity, DEVD-AFC fluorometric assay; type: cell-based, human; conditions: 14.97 μM, 24 h, MDA-MB-468, vs untreated
Procedure: From a mechanistic point of view, caspase 3 as a member of the cysteine-aspartic protease family is essential for a variety of biological activities, including apoptosis in mammalian cells (Skiba et al., 2019). To confirm the drug triggers apoptosis, the level of 7-amino-4-trifluoromethyl-coumarin (AFC) from DEVD-AFC, a marker of caspase 3 activation, was measured using Caspase-3/CPP32 Fluorometric Assay Kit (BioVision Research Products, Mountain View, CA, USA). Briefly, MDA-MB-468 cells (a density of 7.5 × 10^3 per well in 96-wells plate) were treated with 14.97 μM 3f for 24 h. The following day, cells were collected, washed two times in PBS and lysed in lysis buffer (for 10 min on ice). The concentration of protein was assessed and 50 µL of supernatant containing 50-200 µg protein was added to the 50 µL of 2x reaction buffer and 5 μl of DEVD-AFC substrate (1 mM), in a 96-wells plate. The mixture was then left at 37°C for 2 hours followed by monitoring the fluorescence intensity using a fluorescent microplate reader (BioTek Synergy HT, Winooski, VT, USA).

[6] = Homo sapiens, MDA-MB-468, 24 h, 24 h treatment, read-out: IC50, MDA-MB-468, 24 hours
[7] = Homo sapiens, MDA-MB-468, 48 h, 48 h treatment, read-out: IC50, MDA-MB-468, 48 hours
[8] = 24 h treatment, read-out: IC50, AGO1522, 24 hours
[9] = 48 h treatment, read-out: IC50, AGO1522, 48 hours

| IC50 (MDA-MB-468 cells [1]; [6]) [µM] | IC50 (MDA-MB-468 cells [1]; [7]) [µM] | SMILES | IC50 (AGO1522 cells; [8]) [µM] | IC50 (AGO1522 cells; [9]) [µM] | also measured |
| --- | --- | --- | --- | --- | --- |
| 19.4 ± 1.14 | 11 ± 0.88 | COc1cc(-c2cc(-c3ccccc3)nn2-c2ccccc2)cc(OC)c1OC [4a, 1,3-diphenyl-5-(3,4,5-trimethoxyphenyl)-1H-Pyrazole] | 31.2 ± 1.24 | 14.5 ± 0.97 |  |
| 58.2 ± 1.35 | 12 ± 0.94 | COc1ccc(-c2cc(-c3cc(OC)c(OC)c(OC)c3)n(-c3ccc(C)cc3)n2)cc1 [4b, 3-(4-methoxyphenyl)-1-(p-tolyl)-5-(3,4,5-trimethoxyphenyl)-1H-Pyrazole] | 34.6 ± 0.89 | 27 ± 0.79 |  |
| 28.8 ± 0.98 | 12.4 ± 0.79 | COc1ccc(-c2cc(-c3cc(OC)c(OC)c(OC)c3)n(-c3ccc(Cl)cc3)n2)cc1 [4c, 1-(4-chlorophenyl)-3-(4-methoxyphenyl)-5-(3,4,5-trimethoxyphenyl)-1H-Pyrazole] | 25.2 ± 0.88 | 20.9 ± 0.92 |  |
| 58.6 ± 1.32 | 24.5 ± 1.17 | COc1ccc(-c2cc(-c3cc(OC)c(OC)c(OC)c3)n(-c3ccc(F)cc3)n2)cc1 [4d, 1-(4-fluorophenyl)-3-(4-methoxyphenyl)-5-(3,4,5-trimethoxyphenyl)-1H-Pyrazole] | 34.4 ± 1.31 | 27.3 ± 0.94 |  |

Further lines, the compound ahead of its results:

| SMILES | IC50 (MDA-MB-468 cells [1]; [6]) [µM] | IC50 (MDA-MB-468 cells [1]; [7]) [µM] | IC50 (AGO1522 cells; [8]) [µM] | IC50 (AGO1522 cells; [9]) [µM] | also measured |
| --- | --- | --- | --- | --- | --- |
| NC(=S)N1N=C(c2ccccc2)CC1c1ccccc1 (stereo not shown) [2a, 1-thiocarbamoyl-3,5-diphenyl-4,5-dihydro-1H-Pyrazole] |  |  |  |  | cell cycle progression of 5637 cells (5637 cells): inhibited cell cycle progression |
| NC(=S)N1N=C(c2ccccc2)CC1c1ccc(Cl)cc1 (stereo not shown) [2c, 1-thiocarbamoyl-5-(4-chlorophenyl)-3-phenyl-4,5-dihydro-1H-Pyrazole] |  |  |  |  | cell cycle progression of 5637 cells (5637 cells): inhibited cell cycle progression |
| COc1cc(C2CC(c3ccccc3)=NN2c2ccccc2)cc(OC)c1OC (stereo not shown) [3a, 1,3-diphenyl-5-(3,4,5-trimethoxyphenyl)-4,5-dihydro-1H-Pyrazole] | 25 | 6.41 ± 1.1 | 28.8 ± 0.95 | 19.9 ± 0.83 |  |
| COc1cc(C2CC(c3ccccc3)=NN2c2ccc(C)cc2)cc(OC)c1OC (stereo not shown) [3b, 3-phenyl-1-(p-tolyl)-5-(3,4,5-trimethoxyphenyl)-4,5-dihydro-1H-Pyrazole] | 19.2 ± 0.97 | 9.29 ± 0.67 | 29.8 ± 1.02 | 19.8 ± 0.96 |  |
| COc1cc(C2CC(c3ccccc3)=NN2c2ccc(Cl)cc2)cc(OC)c1OC (stereo not shown) [3c, 1-(4-chlorophenyl)-3-phenyl-5-(3,4,5-trimethoxyphenyl)-4,5-dihydro-1H-Pyrazole] | 58.6 ± 0.82 | 19.9 ± 1.12 | 24.1 ± 0.65 | 17.7 ± 0.93 |  |
| COc1cc(C2CC(c3ccccc3)=NN2c2ccc(F)cc2)cc(OC)c1OC (stereo not shown) [3d, 1-(4-fluorophenyl)-3-phenyl-5-(3,4,5-trimethoxyphenyl)-4,5-dihydro-1H-Pyrazole] | 32.6 ± 1.22 | 15.2 ± 0.9 | 42.1 ± 1.27 | 35.6 ± 1.32 |  |
| COc1ccc(C2=NN(c3ccccc3)C(c3cc(OC)c(OC)c(OC)c3)C2)cc1 (stereo not shown) [3e, 3-(4-methoxyphenyl)-1-phenyl-5-(3,4,5-trimethoxyphenyl)-4,5-dihydro-1H-Pyrazole] | 21.3 ± 0.85 | 10.8 ± 0.93 | 42.8 ± 0.98 | 19.9 ± 0.99 |  |
| COc1ccc(C2=NN(c3ccc(C)cc3)C(c3cc(OC)c(OC)c(OC)c3)C2)cc1 (stereo not shown) [3f, 3-(4-methoxyphenyl)-1-(p-tolyl)-5-(3,4,5-trimethoxyphenyl)-4,5-dihydro-1H-Pyrazole] | 15 ± 1.09 | 6.4 | 28.7 ± 1.2 | 20.3 ± 0.83 | intracellular ROS level (MDA-MB-468 cells [2]): ascending trend; G1 cell fraction (MDA-MB-468 cells [3]): 50.52%; G2 cell fraction (MDA-MB-468 cells [3]): 6.28%; S phase cell fraction (MDA-MB-468 cells [3]): 35% and 35.01%; Sub-G1 cell fraction (MDA-MB-468 cells [3]): 8.12%; Super-G2 cell fraction (MDA-MB-468 cells [3]): 0.07%; cell cycle effect (MDA-MB-468 cells [3]): induced cell cycle arrest in S phase; Sub-G1 cell fraction (MDA-MB-468 cells [3]; as worded in text): 8.12%; IC50 (MDA-MB-468 cells [1]; 48 h treatment, read-out: IC50, MDA-MB-468, 48 hours): 6.45 ± 0.84 µM; apoptosis value (MDA-MB-468 cells [4]): 38%; caspase-3 activity [5]: significantly increased |
| COc1ccc(C2=NN(c3ccc(Cl)cc3)C(c3cc(OC)c(OC)c(OC)c3)C2)cc1 (stereo not shown) [3g, 1-(4-chlorophenyl)-3-(4-methoxyphenyl)-5-(3,4,5-trimethoxyphenyl)-4,5-dihydro-1HPyrazole] | 25.8 ± 0.91 | 8.5 ± 0.89 | 43.3 ± 0.96 | 34 ± 1.92 |  |
| CC(=O)O[C@H]1C(=O)[C@@]2(C)[C@H]([C@H](OC(=O)c3ccccc3)[C@]3(O)C[C@H](OC(=O)[C@H](O)[C@@H](NC(=O)c4ccccc4)c4ccccc4)C(C)=C1C3(C)C)[C@]1(OC(C)=O)CO[C@@H]1C[C@@H]2O [Paclitaxel, reference compound] | 49.9 ± 0.97 | 25.2 ± 1.27 | 42.9 ± 1.42 | 22.6 ± 0.91 |  |
